Patent US9446039B2, “Aminoheteroaryl compounds as MTH1 inhibitors” (CEMM—FORSCHUNGSZENTRUM FÜR MOLEKULARE MEDIZIN GMBH, priority 2012, dated 2016)

Key:
Assay type in all cases: binding
[1] = target: T1, SW480 colon carcinoma cells lysate proteins (Homo sapiens, UniProt P08758); details: PreyGene ANXA5
T1 sequence (P08758 1-320): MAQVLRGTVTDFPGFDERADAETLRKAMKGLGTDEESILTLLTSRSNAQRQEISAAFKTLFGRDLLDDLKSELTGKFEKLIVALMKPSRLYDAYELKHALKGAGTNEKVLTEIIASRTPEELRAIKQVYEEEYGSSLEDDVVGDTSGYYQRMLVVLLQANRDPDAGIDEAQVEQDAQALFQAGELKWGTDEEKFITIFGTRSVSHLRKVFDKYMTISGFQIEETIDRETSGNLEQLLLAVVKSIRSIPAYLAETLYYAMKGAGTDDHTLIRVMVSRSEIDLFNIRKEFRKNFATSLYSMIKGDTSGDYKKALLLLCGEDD

[2] = target: SW480 colon carcinoma cells lysate proteins (Homo sapiens, UniProt P39687); details: PreyGene ANP32A
Chain of SW480 colon carcinoma cells lysate proteins (Homo sapiens, UniProt P39687) (P39687 whole entry): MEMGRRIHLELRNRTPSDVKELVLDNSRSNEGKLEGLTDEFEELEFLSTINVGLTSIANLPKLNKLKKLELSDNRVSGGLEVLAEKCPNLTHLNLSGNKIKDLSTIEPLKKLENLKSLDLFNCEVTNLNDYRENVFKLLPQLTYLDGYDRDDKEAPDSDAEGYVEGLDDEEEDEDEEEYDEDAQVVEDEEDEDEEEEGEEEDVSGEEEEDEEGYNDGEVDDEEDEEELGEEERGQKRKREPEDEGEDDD

[3] = target: T2, SW480 colon carcinoma cells lysate proteins (Homo sapiens, UniProt P49458); details: PreyGene SRP9
T2 sequence (P49458 1-86): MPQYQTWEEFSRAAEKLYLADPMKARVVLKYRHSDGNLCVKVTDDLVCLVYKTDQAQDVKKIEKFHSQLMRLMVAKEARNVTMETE

[4] = target: T3, SW480 colon carcinoma cells lysate proteins (Homo sapiens, UniProt P50395); details: PreyGene GDI2
T3 sequence (P50395 1-445): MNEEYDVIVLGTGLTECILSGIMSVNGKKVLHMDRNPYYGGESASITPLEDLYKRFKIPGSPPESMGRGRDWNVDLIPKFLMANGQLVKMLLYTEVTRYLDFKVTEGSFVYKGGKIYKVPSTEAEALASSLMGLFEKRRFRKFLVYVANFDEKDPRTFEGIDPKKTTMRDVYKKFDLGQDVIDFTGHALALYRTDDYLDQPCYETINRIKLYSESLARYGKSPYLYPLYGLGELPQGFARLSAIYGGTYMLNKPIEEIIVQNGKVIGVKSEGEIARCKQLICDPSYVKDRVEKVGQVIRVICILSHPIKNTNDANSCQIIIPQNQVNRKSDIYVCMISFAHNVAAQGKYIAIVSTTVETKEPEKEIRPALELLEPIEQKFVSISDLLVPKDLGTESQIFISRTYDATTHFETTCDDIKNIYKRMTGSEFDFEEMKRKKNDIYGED

[5] = target: T4, SW480 colon carcinoma cells lysate proteins (Homo sapiens, UniProt P68402); details: PreyGene PAFAH1B2; SW480 cells
T4 sequence (P68402 1-229): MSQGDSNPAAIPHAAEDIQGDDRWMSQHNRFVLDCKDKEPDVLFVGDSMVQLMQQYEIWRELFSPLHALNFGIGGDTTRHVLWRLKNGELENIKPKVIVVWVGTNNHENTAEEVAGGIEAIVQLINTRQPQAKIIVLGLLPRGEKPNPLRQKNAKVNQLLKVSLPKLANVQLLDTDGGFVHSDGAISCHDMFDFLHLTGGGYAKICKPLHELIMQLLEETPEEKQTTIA

[6] = target: T5, SW480 colon carcinoma cells lysate proteins (Homo sapiens, UniProt Q13126); details: PreyGene MTAP; SW480 cells
T5 sequence (Q13126 1-283): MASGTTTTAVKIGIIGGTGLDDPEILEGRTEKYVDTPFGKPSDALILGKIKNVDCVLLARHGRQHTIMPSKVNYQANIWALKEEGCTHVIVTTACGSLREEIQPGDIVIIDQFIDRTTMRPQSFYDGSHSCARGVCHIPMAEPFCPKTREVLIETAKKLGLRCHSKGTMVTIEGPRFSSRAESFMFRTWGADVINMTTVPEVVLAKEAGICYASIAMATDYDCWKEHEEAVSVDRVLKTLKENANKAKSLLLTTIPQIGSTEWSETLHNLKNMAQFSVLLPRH

[7] = target: T6, SW480 colon carcinoma cells lysate proteins (Homo sapiens, UniProt Q14444); details: PreyGene CAPRIN1
T6 sequence (Q14444 1-709): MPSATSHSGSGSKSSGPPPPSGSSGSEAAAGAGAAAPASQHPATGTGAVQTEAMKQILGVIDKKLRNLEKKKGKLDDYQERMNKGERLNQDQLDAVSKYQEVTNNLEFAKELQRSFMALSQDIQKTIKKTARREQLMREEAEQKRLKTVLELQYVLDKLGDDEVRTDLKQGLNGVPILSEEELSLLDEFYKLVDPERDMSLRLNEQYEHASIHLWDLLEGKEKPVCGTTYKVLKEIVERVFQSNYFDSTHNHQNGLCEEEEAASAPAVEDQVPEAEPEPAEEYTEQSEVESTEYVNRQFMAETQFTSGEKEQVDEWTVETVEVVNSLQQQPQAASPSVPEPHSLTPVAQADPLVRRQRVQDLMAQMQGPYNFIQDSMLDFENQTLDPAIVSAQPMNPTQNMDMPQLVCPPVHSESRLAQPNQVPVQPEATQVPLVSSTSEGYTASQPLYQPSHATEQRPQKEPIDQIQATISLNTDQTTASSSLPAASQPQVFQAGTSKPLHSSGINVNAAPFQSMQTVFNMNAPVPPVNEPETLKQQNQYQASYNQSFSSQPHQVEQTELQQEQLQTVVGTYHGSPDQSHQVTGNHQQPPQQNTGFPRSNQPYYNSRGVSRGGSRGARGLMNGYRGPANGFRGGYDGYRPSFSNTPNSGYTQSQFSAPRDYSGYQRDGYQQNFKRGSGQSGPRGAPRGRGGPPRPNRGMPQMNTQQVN

In the case of `C[C@H](Oc1cc(-c2cnn(C3CCNCC3)c2)cnc1N)c1c(Cl)ccc(F)c1Cl` [(5)-crizotinib], the AvgP [1] is reported as 0.4332, the “SC.Exp. 1-1” value [1] is reported as 9 and the “SC.Exp. 1-2” value [1] is reported as 6. For the same compound, the “SC.Exp. 2-1” value [1] was 0, the “SC.Exp. 2-2” value [1] was 0 and the “Sum (SC.Exp.)” value [1] was 15. The AvgP [2] was 0.5951, the “SC.Exp. 1-1” value [2] was 1 and the “SC.Exp. 1-2” value [2] was 1. The “SC.Exp. 2-1” value [2] was 1, the “SC.Exp. 2-2” value [2] was 3 and the “Sum (SC.Exp.)” value [2] was 6. For the same compound, the AvgP [3] was 0.2561, the “SC.Exp. 1-1” value [3] was 2 and the “SC.Exp. 1-2” value [3] was 1. The “SC.Exp. 2-1” value [3] was 0, the “SC.Exp. 2-2” value [3] was 2 and the “Sum (SC.Exp.)” value [3] was 5. The AvgP [4] was 0.1854, the “SC.Exp. 1-1” value [4] was 4 and the “SC.Exp. 1-2” value [4] was 0. For the same compound, the “SC.Exp. 2-1” value [4] was 0, the “SC.Exp. 2-2” value [4] was 0 and the “Sum (SC.Exp.)” value [4] was 4. For the same compound, the AvgP [5] was 0, the “SC.Exp. 1-1” value [5] was 1 and the “SC.Exp. 1-2” value [5] was 1. The “SC.Exp. 2-1” value [5] was 0, the “SC.Exp. 2-2” value [5] was 0 and the “SC.Exp. Sum” value [5] was 2. For the same compound, the AvgP [6] was 0, the “SC.Exp. 1-1” value [6] was 1 and the “SC.Exp. 1-2” value [6] was 1. The “SC.Exp. 2-1” value [6] was 0, the “SC.Exp. 2-2” value [6] was 0 and the “SC.Exp. Sum” value [6] was 2. For the same compound, the AvgP [7] was 0.2355, the “SC.Exp. 1-1” value [7] was 2 and the “SC.Exp. 1-2” value [7] was 2. For the same compound, the “SC.Exp. 2-1” value [7] was 0, the “SC.Exp. 2-2” value [7] was 0 and the “Sum (SC.Exp.)” value [7] was 4.
